These results are taken from patent publication US7345088B2, “Pharmaceutical composition for use for the treatment of malignancies comprising in combination a bisphosphonates, a cox-2 inhibitor and a taxol” (Penn State Research Foundation, priority 2001, dated 2008).

What all share (format): cell-based
For assay [1], the system named is HER-2/neu transfected human breast cancer cell line (MCF/18). In words: MTT tetrazolium dye assay, cell number after 3-day incubation, MCF/18. The note with it: MCF/18 cells. How it is done:
(§1) Methods: The effect of combining the COX-2 inhibitor (SC 236) and zoledronic acid compared to either agent alone was tested in a HER-2/neu transfected human breast cancer cell line (MCF/18) and the control vector transfected line (MCF/neo). Cell number was determined after a 3-day incubation using the MTT tetrazolium dye assay.
(§2) Methods: The effect of combining the COX-2 inhibitor (SC236) with zoledronic acid and/or taxotere was tested in a HER-2/neu transfected human breast cancer cell line (MCF/18) and the control vector transfected line (MCF/neo). Cell number was determined after a 3-day incubation using the MTT tetrazolium dye assay.

The test system of assay [2] is DU-145 human prostate carcinoma cell line. Briefly: MTT tetrazolium dye assay, cell number after 3 day treatment, DU-145. As to conditions: DU-145 cells. How it is done: Methods: The effect of combining the COX-2 inhibitor (SC236) and zoledronic acid compared to either agent alone was tested in the DU-145 human prostate carcinoma cell line. Cell number was determined after a 3 day treatment using the MTT tetrazolium dye assay.
A general note: Formazan colour is commonly taken as a measure of viable cells.

The test system of assay [3] is control vector transfected human breast cancer cell line (MCF/neo). In words: MTT tetrazolium dye assay, cell number after 3-day incubation, MCF/neo. As to conditions: MCF/neo cells. As for the experimental part:
as §1, §2

The mark [4] stands for this setting: single agent 1-10 μM, 3-day incubation (Example 19).
Setting [5] is: single agent, concentration not given, 3-day incubation (Example 20).

As a reminder, the inhibition is the relative decrease from the control value, in per cent. For the molecule `O=P(O)(O)C(O)(Cn1ccnc1)P(=O)(O)O` [zoledronic acid, 2-(imidazol-1yl)-1-hydroxyethane-1,1-diphosphonic acid], the growth inhibition in assay [1] (setting [4]) is 9-53%; in assay [1] (setting [5]) it was 9%-53%; in assay [2] (1-10 μM) it was 8-70%; in assay [3] (setting [4]), 8-67%; in assay [3] (setting [5]) it was 18%-67%. The inhibition at 3 µM in assay [2] (Homo sapiens, 72 h, 3 μM, read-out: growth inhibition) turned out to be 23%.

Take `NS(=O)(=O)c1ccc(-n2nc(C(F)(F)F)cc2-c2ccc(Cl)cc2)cc1` [SC236]: the growth inhibition in assay [1] (setting [4]) is on record as 15-41%; in assay [2] (5 μM), 40%; in assay [2] (1-25 μM) it was 0-77%; in assay [3] (setting [4]), 18-53%.
